# pIC50: −log10 of the molar value. Calls of active or inactive are those of the source. No cut-off for these calls is given here.
# Legend:
# Trypanosoma cruzi [1] = test: Antitrypanosomal activity against trypomastigote forms of Trypanosoma cruzi Y infected in LLC-MK2 cells assessed as parasite growth inhibition by resazurin assay; assay type: functional, organism-based
# [2] = Cytotoxicity against mouse NCTC clone 929 cells assessed as reduction in cell viability after 48 hrs by MTT assay; assay type: cell-based
# [3] = Selectivity index, ratio of CC50 for cytotoxicity against mouse NCTC clone 929 cells to IC50 for trypomastigote forms of Trypanosoma cruzi Y infected in LLC-MK2 cells; assay type: toxicity, cell-based; conditions: read-out: Ratio CC50/IC50
# Cell membrane [4] = test: Induction of cell membrane permeability in trypomastigote forms of Trypanosoma Cruzi Y at IC50 measured after 120 mins by SYSTOX Green assay; assay type: subcellular
# Cell membrane [5] = test: Induction of cell membrane permeability in trypomastigote forms of Trypanosoma Cruzi Y at IC50 measured after 80 mins by SYSTOX Green assay; assay type: subcellular
# Trypanosoma cruzi [6] = test: Induction of acidocalcisome alkalinization in trypomastigotes form of Trypanosoma cruzi Y assessed as upregulation of Ca2+ level at IC50 using acridine orange measured after 60 min by fluorescent based assay
# Trypanosoma cruzi [7] = test: Antitrypanosomal activity against Trypanosoma cruzi Y assessed as increase in calcium level at IC50 measured upto 160 min by Fluo-4 AM probe-based spectrofluorimetric method; assay type: functional, organism-based; conditions: time min <=160
# Trypanosoma cruzi [8] = test: Induction of mitochondrial membrane depolarization in trypomastigote forms of Trypanosoma cruzi Y at IC50 measured after 2 hrs by JC-1 staining based flow cytometry; assay type: functional, organism-based
# Trypanosoma cruzi [9] = test: Antitrypanosomal activity against trypomastigote forms of Trypanosoma cruzi Y assessed as increase in ATP levels at IC50 incubated for 1 hrs by microplate reader method; assay type: functional, organism-based
# Trypanosoma cruzi [10] = test: Antitrypanosomal activity against trypomastigote forms of Trypanosoma cruzi Y assessed as increase in ATP levels at IC50 incubated for 2 hrs by microplate reader method; assay type: functional, organism-based
# Trypanosoma cruzi [11] = test: Induction of ROS generation in trypomastigote forms of Trypanosoma cruzi Y assessed as effect on reactive oxygen species level at IC50 for 2 hrs by fluorimetric microplate reader method; assay type: functional, organism-based
# Cell membrane [12] = test: Induction of plasma membrane depolarization in trypomastigote forms of Trypanosoma cruzi Y at IC50 measured after 2 hrs by DiSBAC2(3)-probe based assay
# Cytochrome P450 1A2 = target: T1, Cytochrome P450 1A2 (Homo sapiens, UniProt P05177); test: Inhibition of CYP1A2 (unknown origin); assay type: ADME
# T1 sequence (P05177 whole entry): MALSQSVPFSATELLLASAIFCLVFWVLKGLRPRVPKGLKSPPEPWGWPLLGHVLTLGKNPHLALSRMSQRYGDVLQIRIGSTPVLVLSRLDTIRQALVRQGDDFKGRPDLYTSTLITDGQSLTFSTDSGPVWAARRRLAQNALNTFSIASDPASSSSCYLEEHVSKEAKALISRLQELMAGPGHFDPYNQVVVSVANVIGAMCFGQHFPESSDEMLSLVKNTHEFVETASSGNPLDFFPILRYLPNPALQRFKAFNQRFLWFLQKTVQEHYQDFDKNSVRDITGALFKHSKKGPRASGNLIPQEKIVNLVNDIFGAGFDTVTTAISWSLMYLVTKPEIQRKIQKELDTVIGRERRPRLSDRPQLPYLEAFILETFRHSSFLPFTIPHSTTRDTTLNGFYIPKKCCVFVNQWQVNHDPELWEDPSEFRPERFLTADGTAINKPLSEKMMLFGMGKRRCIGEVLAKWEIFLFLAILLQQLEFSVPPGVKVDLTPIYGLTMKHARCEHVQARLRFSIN
# Cytochrome P450 2C19 = Cytochrome P450 2C19 (Homo sapiens, UniProt P33261); test: Inhibition of CYP2C19 (unknown origin); assay type: ADME
# Cytochrome P450 2C19, sequence (P33261 whole entry): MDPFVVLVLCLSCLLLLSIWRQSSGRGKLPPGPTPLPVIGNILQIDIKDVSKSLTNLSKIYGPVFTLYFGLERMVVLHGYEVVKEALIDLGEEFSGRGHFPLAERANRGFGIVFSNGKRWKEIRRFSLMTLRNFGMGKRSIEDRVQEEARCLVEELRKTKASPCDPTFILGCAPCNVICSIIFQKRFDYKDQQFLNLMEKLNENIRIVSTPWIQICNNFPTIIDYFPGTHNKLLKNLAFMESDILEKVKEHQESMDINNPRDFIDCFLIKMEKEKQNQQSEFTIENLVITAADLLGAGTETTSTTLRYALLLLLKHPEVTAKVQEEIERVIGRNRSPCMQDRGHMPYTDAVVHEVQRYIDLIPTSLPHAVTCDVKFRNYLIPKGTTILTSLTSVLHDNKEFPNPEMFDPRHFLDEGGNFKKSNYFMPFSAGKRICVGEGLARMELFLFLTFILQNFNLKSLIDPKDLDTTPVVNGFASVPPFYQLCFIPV
# Cytochrome P450 2C9 = Cytochrome P450 2C9 (Homo sapiens, UniProt P11712); test: Inhibition of CYP2C9 (unknown origin); assay type: ADME
# Cytochrome P450 2C9, sequence (P11712 whole entry): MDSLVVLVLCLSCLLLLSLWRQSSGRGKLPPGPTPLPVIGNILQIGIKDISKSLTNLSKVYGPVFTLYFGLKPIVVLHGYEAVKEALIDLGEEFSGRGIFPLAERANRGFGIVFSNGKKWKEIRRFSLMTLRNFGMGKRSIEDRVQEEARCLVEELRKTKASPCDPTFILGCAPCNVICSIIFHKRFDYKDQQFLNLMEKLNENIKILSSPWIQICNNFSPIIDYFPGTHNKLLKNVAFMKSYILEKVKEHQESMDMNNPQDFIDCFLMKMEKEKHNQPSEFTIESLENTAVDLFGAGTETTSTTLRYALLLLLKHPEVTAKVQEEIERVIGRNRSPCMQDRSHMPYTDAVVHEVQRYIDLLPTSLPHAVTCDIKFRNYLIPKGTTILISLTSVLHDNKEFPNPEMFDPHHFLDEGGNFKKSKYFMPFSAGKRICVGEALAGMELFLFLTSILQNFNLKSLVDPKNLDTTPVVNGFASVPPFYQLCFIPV
# Cytochrome P450 2D6 = Cytochrome P450 2D6 (Homo sapiens, UniProt P10635); test: Inhibition of CYP2D6 (unknown origin); assay type: ADME
# Cytochrome P450 2D6, sequence (P10635 whole entry): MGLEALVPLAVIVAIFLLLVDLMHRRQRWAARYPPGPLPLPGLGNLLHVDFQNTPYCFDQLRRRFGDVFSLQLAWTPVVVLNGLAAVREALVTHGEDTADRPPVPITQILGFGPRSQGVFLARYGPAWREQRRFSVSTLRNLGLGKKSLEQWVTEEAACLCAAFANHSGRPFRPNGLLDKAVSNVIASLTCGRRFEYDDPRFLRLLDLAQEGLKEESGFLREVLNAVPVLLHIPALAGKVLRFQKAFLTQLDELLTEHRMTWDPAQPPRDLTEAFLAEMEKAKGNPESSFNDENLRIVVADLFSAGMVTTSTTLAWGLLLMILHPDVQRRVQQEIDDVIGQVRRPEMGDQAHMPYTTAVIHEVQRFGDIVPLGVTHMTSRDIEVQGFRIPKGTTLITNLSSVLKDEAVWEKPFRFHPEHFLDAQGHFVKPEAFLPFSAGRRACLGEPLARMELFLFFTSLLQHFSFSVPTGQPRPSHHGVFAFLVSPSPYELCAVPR
# Cytochrome P450 3A4 = Cytochrome P450 3A4 (Homo sapiens, UniProt P08684); test: Inhibition of CYP3A4 (unknown origin); assay type: ADME
# Cytochrome P450 3A4, sequence (P08684 whole entry): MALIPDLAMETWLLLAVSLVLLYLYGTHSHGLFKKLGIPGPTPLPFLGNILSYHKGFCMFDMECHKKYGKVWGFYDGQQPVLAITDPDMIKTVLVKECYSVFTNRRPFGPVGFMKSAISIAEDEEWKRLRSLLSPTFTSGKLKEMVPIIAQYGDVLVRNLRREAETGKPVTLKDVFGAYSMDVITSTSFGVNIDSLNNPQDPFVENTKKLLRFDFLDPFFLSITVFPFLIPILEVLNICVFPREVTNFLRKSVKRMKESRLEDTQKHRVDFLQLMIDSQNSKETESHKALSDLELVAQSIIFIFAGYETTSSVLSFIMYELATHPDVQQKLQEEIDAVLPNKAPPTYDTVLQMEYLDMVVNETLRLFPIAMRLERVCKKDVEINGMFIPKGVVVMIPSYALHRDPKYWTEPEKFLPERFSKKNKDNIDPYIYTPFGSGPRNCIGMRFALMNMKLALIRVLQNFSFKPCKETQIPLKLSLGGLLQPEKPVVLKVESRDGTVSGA
smiles,measurement,setting,value
CCCCCCCCCCCCCCCCCCCCC/C=C1/C[C@H](CO)OC1=O,pIC50,Trypanosoma cruzi [1],5.68
same,CC50 at 48 h,[2],> 200 µM
same,selectivity ratio,[3],> 95.2
same,Activity,Cell membrane [4],inactive
same,Activity,Cell membrane [5],Active
same,Activity,Trypanosoma cruzi [6],Active
same,Activity,Trypanosoma cruzi [7],Active
same,Activity,Trypanosoma cruzi [8],Active
same,Activity,Trypanosoma cruzi [9],inactive
same,Activity,Trypanosoma cruzi [10],inactive
same,Activity,Trypanosoma cruzi [11],inactive
same,Activity,Cell membrane [12],Active
same,inhibition (INH),Cytochrome P450 1A2,Not Active
same,inhibition (INH),Cytochrome P450 2C19,Not Active
same,inhibition (INH),Cytochrome P450 2C9,Not Active
same,inhibition (INH),Cytochrome P450 2D6,Not Active
same,inhibition (INH),Cytochrome P450 3A4,Not Active
O=C(Cn1ccnc1[N+](=O)[O-])NCc1ccccc1 [BENZNIDAZOLE],pIC50,Trypanosoma cruzi [1],4.79
same,CC50 at 48 h,[2],> 200 µM
same,selectivity ratio,[3],> 12.2
CCCCCCCCCCCCCCC/C=C1/C[C@H](CO)OC1=O,pIC50,Trypanosoma cruzi [1],5.40
same,CC50 at 48 h,[2],71.2 µM
same,selectivity ratio,[3],17.8
same,Activity,Cell membrane [12],Active
same,inhibition (INH),Cytochrome P450 1A2,Active
same,inhibition (INH),Cytochrome P450 2C19,Active
same,inhibition (INH),Cytochrome P450 2C9,Active
same,inhibition (INH),Cytochrome P450 2D6,Active
same,inhibition (INH),Cytochrome P450 3A4,Active
C=CCCCCCCCCCCCCC/C=C1/C[C@H](CO)OC1=O,pIC50,Trypanosoma cruzi [1],4.88
same,CC50 at 48 h,[2],> 200 µM
same,selectivity ratio,[3],> 15.3
same,Activity,Cell membrane [4],inactive
same,Activity,Cell membrane [5],Active
same,Activity,Trypanosoma cruzi [6],Active
same,Activity,Trypanosoma cruzi [7],Active
same,Activity,Trypanosoma cruzi [8],Active
same,Activity,Trypanosoma cruzi [9],Active
same,Activity,Trypanosoma cruzi [11],inactive
same,Activity,Cell membrane [12],Active
same,inhibition (INH),Cytochrome P450 1A2,Active
same,inhibition (INH),Cytochrome P450 2C19,Active
same,inhibition (INH),Cytochrome P450 2C9,Active
same,inhibition (INH),Cytochrome P450 2D6,Active
same,inhibition (INH),Cytochrome P450 3A4,Active

# — ChEMBL document CHEMBL4825666, “Antitrypanosomal Lactones from Nectandra barbellata” (J Nat Prod, 2021)
